Where two headings read alike, the source gives them in different places.
What was measured:
[1] = source not stated; cited from earlier work
[2] = cited from earlier work
[3] = RPLC determination of sspKa in EtOH-water binary mixtures (green RPLC); type: physicochemical; conditions: standard deviation in parentheses
Protocol: (§1) The analysis of the compounds on the HPLC column was determined in binary mixtures of ACN–water and EtOH–water containing 50, 55, and 60% (v/v) organic solvents at varying pH values (5.5–11.5). Buffer compounds containing 30 mM o-H3PO4 and NH4Cl at the same concentration were used in the mobile phases according to the pH values at which the buffers were effective.
(§2) The pH value of the mobile phase was adjusted by adding a 1 M NaOH solution to the mobile phase containing o-H3PO4 and by adding concentrated NH3 solution to the mobile phase containing ammonium chloride. The pH values of the binary mixtures in this mobile phase were evaluated according to the International Union of Pure and Applied Chemistry (IUPAC) guideline, taking into account the reference pH values obtained from the National Institute of Standards and Technology (NIST). − KHP (0.05 mol/kg) was used as a reference standard for electrode calibration in hydroorganic mixtures. The pH value (pHx) of this hydroorganic mixture can be determined by eq . pHx=pHs+Es−Ex/(ln10)RT/F 1
(§3) Solutions of the investigated compounds in binary mixtures were prepared daily. Standard solutions at 100 μg/mL concentrations were prepared in the studied mobile phase. Fresh solutions were prepared daily and stored at +4 °C in the dark until analysis. For testing, a 20 μL sample was injected three times into the HPLC instrument. The average t R was calculated from these replicates, showing precision with a relative standard deviation (%RSD) of approximately 0.01.
(§4) This liquid chromatographic study was performed at 25 and 37 °C. Chromatographic determination of the compounds was performed on a Kinetex EVO C18 (Phenomenex, 150 × 4.6 mm ID, 5 μm) core–shell column at a constant flow rate of 1 mL/min. There are no data in the literature regarding the determination of the retention behavior of compounds by analysis with HPLC columns produced with the core–shell technique. Additionally, the theoretical plate number of the column being 2000 and above and the tailing factor being below 2 indicate optimum column performance and satisfactory peak symmetry.
(§5) The t R values of promethazine, promazine, and trimeprazine for the study on the HPLC column were determined by using the RPLC method at different pH values in binary mixtures. The s ^spK a values of the ionizable and molecular forms (BH^+, B) were calculated using the nonlinear regression program (NLREG).
(§6) The intrinsic t R (t RBH^+ , t RB) and s ^spK a values of the studied compounds were calculated in the NLREG program using the average t R values determined depending on the changing EtOH and ACN concentrations and pH values in the mobile phase. It is seen that the standard deviation values of the sigmoidal fitting parameters (t RBH^+ , t RB, and s ^spK a) given in Table are very small. Since good results were obtained by using the t R value directly, the k value was not used. Although the changes in s ^spK a values according to the solvent composition in the mobile phase used were different for each compound, the same type of sigmoidal behavior was obtained as in Figure . The s ^spK a of basic compounds decreases mainly due to electrostatic interactions that contribute to the pK a value. Since ACN (0.46) and EtOH (0.65) have lower relative polarity compared to water (1.00), the solute–solvent polar interaction decreases as the amount of organic solvent in the mobile phase increases. Therefore, the t R value increases as the pH value of the mobile phase increases, while the t R value decreases as the amount of organic solvents in the mobile phase increases. In the mobile phase rich in ACN (0.25 ≤ X ACN ≤ 0.33) and EtOH (0.26 ≤ X EtOH ≤ 0.35), preferential solvation with water exists, and this can explain the decrease in the s ^spK a values of the studied compounds when the amount of organic solvent in the mobile phase increases. ,

[4] = RPLC determination of sspKa in ACN-water binary mixtures (conventional RPLC); type: physicochemical; conditions: standard deviation in parentheses
Protocol: as §1, §2, §3, §4, §5, §6

[5] = Percent ionization of the basic functional group by Henderson-Hasselbach equation; type: physicochemical; conditions: from wwpKa at 37 °C (EtOH-water)
Text: Drug molecules can ionize at different pH ranges, and the pK a value serves as a universal measure of ionization. […] Changing the ionic form of a drug can affect its action, absorption, and therapeutic efficacy depending on the pH of the medium. Therefore, evaluating the degree of ionization of the compounds selected in this study is crucial. Using the Henderson–Hasselbach equation, the percent ionization and pK a (at 50% ionization) of the basic functional group of each compound at different pH values were calculated (Figure S4). Since a green chemistry approach was preferred in this study, the w ^wpK a values at 37 °C, determined from data obtained from an EtOH-water binary mixture, were used in the calculation of the percentage ionization. […] At a pH value 2 pH units above the pK a, the basic compound is in its un-ionized form. It is known that the hydrophilic properties of compounds decrease as the alkyl chain length increases. According to the data in Table S2, the percentage ionization values increase as the alkyl chain length increases.

[6] = Aqueous pKa (wwpKa) calculated from sspKa via X solvent - sspKa and 1/ε - sspKa linear relationships; type: physicochemical; conditions: for wwpKa, 1/εACN - sspKa approach / wwpKa, X ACN - sspKa approach: from ACN-water data; for wwpKa, 1/εEtOH - sspKa approach / wwpKa, X EtOH - sspKa approach: from EtOH-water data
Protocol: The w ^wpK a values of promethazine, promazine, and trimeprazine in a water medium were determined by evaluating the obtained s ^spK a values of the compounds with the X solvent – s ^spK a , and the reciprocal of the solvent’s dielectric constant (1/ε) – s ^spK a relationships.
In this study, the w ^wpK a values of the examined compounds were determined based on the mole fraction of solvent-s ^spK a (X solvent – s ^spK a) and 1/εsolvent – s ^spK a approaches. In the calculation using the solvent mole fraction, the intercept values of the equation obtained from the linear relationship between the organic solvent X solvent and s ^spK a give the w ^wpK a values of the compounds examined.
To confirm the computed w ^wpK a values, an alternative approach was employed. Within the scope of the study, the correlation between the inverse of the dielectric constant value of the organic solvent (1/ε) and the s ^spK a values of the compounds was utilized. Since the ε values depend on the temperature, these values were taken from Gagliardi et al. and Navarkhele and Navarkhele for the two temperatures under study. , In the obtained linear equations, ε values in the water environment were used for increasing temperatures, and w ^wpK a values for the compounds could be determined. There was a decrease in the dielectric constant with the decrease in solvent polarity.
Figure illustrates the linear relationship between the solvent’s macroscopic constant X solvent and s ^spK a values.

| Compound | logP [1] | sspKa ([3]; 50% (v/v) EtOH-water, 25 °C) | sspKa ([3]; 50% (v/v) EtOH-water, 37 °C) | sspKa ([3]; 55% (v/v) EtOH-water, 25 °C) | sspKa ([3]; 55% (v/v) EtOH-water, 37 °C) | sspKa ([3]; 60% (v/v) EtOH-water, 25 °C) | sspKa ([3]; 60% (v/v) EtOH-water, 37 °C) | sspKa ([4]; 50% (v/v) ACN-water, 25 °C) | sspKa ([4]; 50% (v/v) ACN-water, 37 °C) | sspKa ([4]; 55% (v/v) ACN-water, 25 °C) | sspKa ([4]; 55% (v/v) ACN-water, 37 °C) | sspKa ([4]; 60% (v/v) ACN-water, 25 °C) | sspKa ([4]; 60% (v/v) ACN-water, 37 °C) | % Ionization value ([5]; pH 2.0) [%] | % Ionization value ([5]; pH 7.4) [%] | % Ionization value ([5]; pH 9.0) [%] | % Ionization value ([5]; pH 10.0) [%] | % Ionization value ([5]; pH 12.0) [%] | wwpKa, 1/εACN - sspKa approach ([6]; 25 °C) | wwpKa, X ACN - sspKa approach ([6]; 25 °C) | other results |
| --- | --- | --- | --- | --- | --- | --- | --- | --- | --- | --- | --- | --- | --- | --- | --- | --- | --- | --- | --- | --- | --- |
| CN(C)CCCN1c2ccccc2Sc2ccccc21 [promazine] | 3.75 | 9.185 (0.042) | 9.048 (0.024) | 8.978 (0.008) | 8.914 (0.053) | 8.808 (0.042) | 8.805 (0.066) | 9.265 (0.088) | 9.195 (0.036) | 9.096 (0.012) | 9.042 (0.082) | 8.867 (0.009) | 8.857 (0.082) | 100 | 99.635 | 87.269 | 40.670 | 0.681 | 10.361 | 10.468 | pKa, literature values ([2]; 37 °C): 9.11 ± 0.03; wwpKa, 1/εACN - sspKa approach ([6]; 37 °C): 10.120; wwpKa, X ACN - sspKa approach ([6]; 37 °C): 10.213; wwpKa, 1/εEtOH - sspKa approach ([6]; 25 °C): 10.302; wwpKa, X EtOH - sspKa approach ([6]; 25 °C): 10.407; wwpKa, 1/εEtOH - sspKa approach ([6]; 37 °C): 9.766; wwpKa, X EtOH - sspKa approach ([6]; 37 °C): 9.836 |
| CC(CN1c2ccccc2Sc2ccccc21)N(C)C (stereo not shown) [promethazine] | 3.14 | 9.117 (0.011) ^a | 8.926 (0.082) | 8.999 (0.008) | 8.824 (0.009) | 8.900 (0.071) | 8.666 (0.031) | 9.167 (0.064) ^a | 9.108 (0.045) | 9.007 (0.064) | 8.947 (0.097) | 8.868 (0.075) | 8.806 (0.053) | 100 | 99.591 | 85.962 | 37.979 | 0.609 | 9.980 | 10.056 | wwpKa, 1/εACN - sspKa approach ([6]; 37 °C): 9.924; wwpKa, X ACN - sspKa approach ([6]; 37 °C): 10.006; wwpKa, 1/εEtOH - sspKa approach ([6]; 25 °C): 9.761; wwpKa, X EtOH - sspKa approach ([6]; 25 °C): 9.821; wwpKa, 1/εEtOH - sspKa approach ([6]; 37 °C): 9.716; wwpKa, X EtOH - sspKa approach ([6]; 37 °C): 9.787 |
| CC(CN(C)C)CN1c2ccccc2Sc2ccccc21 (stereo not shown) [trimeprazine] | 4.11 | 9.388 (0.012) | 9.329 (0.034) | 9.278 (0.016) | 9.243 (0.091) | 9.167 (0.034) | 9.118 (0.045) | 9.643 (0.078) | 9.470 (0.073) | 9.527 (0.038) | 9.329 (0.050) | 9.425 (0.062) | 9.202 (0.047) | 100 | 99.765 | 91.410 | 51.554 | 1.053 | 10.134 | 10.268 | pKa, literature values ([2]; 25 °C, different methods (CE, potentiometry, UV-Vis)): 10.12; wwpKa, 1/εACN - sspKa approach ([6]; 37 °C): 10.112; wwpKa, 1/εEtOH - sspKa approach ([6]; 25 °C): 10.049; wwpKa, X EtOH - sspKa approach ([6]; 25 °C): 10.110; wwpKa, 1/εEtOH - sspKa approach ([6]; 37 °C): 9.968; wwpKa, X EtOH - sspKa approach ([6]; 37 °C): 10.027 |

Source: paper PMC12593965, “Determination of Retention Behavior and pK a Values of Some Phenothiazines with Green Chemistry Approach” (ACS Omega, 2025)
